# Measurements as given in patent publication US10617662B2, “Autophagy activation-induced compound for improving skin inflammation for aging” (INCOSPHARM CORPORATION, priority 2017, dated 2020).
# System: IL-1β (interleukin-1beta)
# Assay: ELISA for IL-1β in LPS-treated HEKa cells
# Type: cell-based, human
# Conditions: LPS-induced inflammatory condition, 10·M, FIG. 10
# Method: ELISA (enzyme-linked immunosorbent assay) for IL-1β (interleukin-1beta) which is very closely related to atopic inflammation and psoriasis was performed.
# As a specific experimental method, HEKa cells (Human Epidermal keratinocytes, adult), human-derived epidermal keratinocytes were seeded on a 24 well plate at a density of 1×10^5 cells, and cultured in an EpiLife medium (1× Human keratinocyte Growth supplement, 1× antibiotics) in an incubator under 37° C. and 5% CO2 for 24 hours.
# After culturing, while an inflammatory condition was induced by treatment with LPS (lipopolysaccharides) in each well, further treatment was performed with Compound 8 of the present invention and the compound of the following Comparative Example at a concentration of 10·M, and then the cells were incubated for a certain period. After completing culturing, media were collected, and then ELISA for IL-1β was carried out, and the results are shown in FIG. 10.
structure (smiles),measurement,value
"O=C(O)CN(CCCCNC(CCCCN(CC(=O)O)CC(=O)O)C(=O)O)CC(=O)O (stereo not shown) [compound of the Comparative Example, reference compound]",cytokine IL-1β secretion level,negligible
